Like-named read-outs stand apart in the source and are kept apart here.
Molecular target: T1, NTCP (Homo sapiens, UniProt Q14973)
T1 sequence (Q14973 1-349): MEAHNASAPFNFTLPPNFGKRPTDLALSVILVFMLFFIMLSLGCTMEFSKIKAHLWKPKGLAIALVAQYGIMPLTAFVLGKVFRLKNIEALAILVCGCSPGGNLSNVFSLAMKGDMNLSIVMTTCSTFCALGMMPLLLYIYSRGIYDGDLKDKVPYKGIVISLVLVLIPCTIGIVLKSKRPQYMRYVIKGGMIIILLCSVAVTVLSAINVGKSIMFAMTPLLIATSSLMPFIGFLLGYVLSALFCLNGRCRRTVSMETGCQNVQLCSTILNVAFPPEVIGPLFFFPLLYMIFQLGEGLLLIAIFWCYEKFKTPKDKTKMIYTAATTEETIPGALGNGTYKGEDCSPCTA
Experiment: [3H]-TCA uptake assay (NTCP inhibition)
Format: cell-based
In short: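 PTH and HepG2-NTCP cells kept 24 h in PMM to induce NTCP, then exposed 2 h to test compounds or DMSO. Uptake of 1 μM [3H]-taurocholate in Na+ Ringer's buffer (145 mM Na) ran 15 min at 37° C. Cells washed, lysed in 1% Triton X-100, and radioactivity counted by liquid scintillation.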

[1] = IC50, given as a range, assay not given
[2] = given as a range, assay not given
[3] = IC50, given as a range, marked * (asterisk not explained)

Compound | IC50 [2] | IC50 [3] | further results
CCC1NC(=O)C(C2OC(Sc3ccc(NC(C)=O)cc3)CC2C)N(C)C(=O)C(C(C)C)N(C)C(=O)C(CC(C)C)N(C)C(=O)C(CC(C)C)N(C)C(=O)C(C)NC(=O)C(C)NC(=O)C(CC(C)C)N(C)C(=O)C(C(C)C)NC(=O)C(CC(C)C)N(C)C(=O)CN(C)C1=O [Compound 4A, [2-((2R,3R)-5-(4-acetamidophenylthio)-3-methyltetrahydrofuran-2-yl)-2-(methylamino)acetic acid]^1-cyclosporin A] |  |  | IC50 [1]: 1000 to 10000 nM
CCC1NC(=O)C(C2OC(Sc3cccc(OCc4ccc5ccc(=O)oc5c4)c3)CC2C)N(C)C(=O)C(C(C)C)N(C)C(=O)C(CC(C)C)N(C)C(=O)C(CC(C)C)N(C)C(=O)C(C)NC(=O)C(C)NC(=O)C(CC(C)C)N(C)C(=O)C(C(C)C)NC(=O)C(CC(C)C)N(C)C(=O)CN(C)C1=O [Compound 58A, [2-((2R,3R)-3-methyl-5-(3-((2-oxo-2H-chromen-7-yl)methoxy)phenylthio)tetrahydrofuran-2-yl)-2-(methylamino)acetic acid]^1-cyclosporin A] | 1 to 1000 nM |  | 
CCC1NC(=O)C(C2OC(SCc3ccc(N4CCOCC4)cc3)CC2C)N(C)C(=O)C(C(C)C)N(C)C(=O)C(CC(C)C)N(C)C(=O)C(CC(C)C)N(C)C(=O)C(C)NC(=O)C(C)NC(=O)C(CC(C)C)N(C)C(=O)C(C(C)C)NC(=O)C(CC(C)C)N(C)C(=O)CN(C)C1=O (stereo not shown) [Compound 99A-s] |  | 1000 to 100000 nM | 
CCC1NC(=O)C(C2OC(Sc3ccc(N4CCOCC4)cc3)CC2C)N(C)C(=O)C(C(C)C)N(C)C(=O)C(CC(C)C)N(C)C(=O)C(CC(C)C)N(C)C(=O)C(C)NC(=O)C(C)NC(=O)C(CC(C)C)N(C)C(=O)C(C(C)C)NC(=O)C(CC(C)C)N(C)C(=O)CN(C)C1=O [Compound 3A, [2-((2R,3R)-3-methyl-5-(4-morpholinophenylthio)tetrahydrofuran-2-yl)-2-(methylamino)acetic acid]^1-cyclosporin A] | 1 to 1000 nM |  | 
CCC1NC(=O)C(C2OC(Oc3cccc(OCC4CCOCC4)c3)CC2C)N(C)C(=O)C(C(C)C)N(C)C(=O)C(CC(C)C)N(C)C(=O)C(CC(C)C)N(C)C(=O)C(C)NC(=O)C(C)NC(=O)C(CC(C)C)N(C)C(=O)C(C(C)C)NC(=O)C(CC(C)C)N(C)C(=O)CN(C)C1=O (stereo not shown) [Compound 33A-o] |  | 1000 to 100000 nM | 
CCC1NC(=O)C(C2OC(Sc3cccc(OCc4ccncc4)c3)CC2C)N(C)C(=O)C(C(C)C)N(C)C(=O)C(CC(C)C)N(C)C(=O)C(CC(C)C)N(C)C(=O)C(C)NC(=O)C(C)NC(=O)C(CC(C)C)N(C)C(=O)C(C(C)C)NC(=O)C(CC(C)C)N(C)C(=O)CN(C)C1=O [Compound 54A, [2-((2,3R)-3-methyl-5-(3-(pyridin-4-ylmethoxy)phenylthio)tetrahydrofuran-2-yl)-2-(methylamino)acetic acid]^1-cyclosporin A] | 1 to 1000 nM |  | 
CCOc1ccc(SC2CC(C)C(C3C(=O)NC(CC)C(=O)N(C)CC(=O)N(C)C(CC(C)C)C(=O)NC(C(C)C)C(=O)N(C)C(CC(C)C)C(=O)NC(C)C(=O)NC(C)C(=O)N(C)C(CC(C)C)C(=O)N(C)C(CC(C)C)C(=O)N(C)C(C(C)C)C(=O)N3C)O2)cc1 [Compound 27A, [2-((2R,3R)-5-(4-ethoxyphenylthio)-3-methyltetrahydrofuran-2-yl)-2-(methylamino)acetic acid]^1-cyclosporin A] | 1 to 1000 nM |  | 
CCC1NC(=O)C(C2OC(OC(c3ccccc3)c3ccccc3)CC2C)N(C)C(=O)C(C(C)C)N(C)C(=O)C(CC(C)C)N(C)C(=O)C(CC(C)C)N(C)C(=O)C(C)NC(=O)C(C)NC(=O)C(CC(C)C)N(C)C(=O)C(C(C)C)NC(=O)C(CC(C)C)N(C)C(=O)CN(C)C1=O [Compound 80A, [2-((2R,3R)-3-methyl-5-(benzhydryloxy)tetrahydrofuran-2-yl)-2-(methylamino)acetic acid]^1-cyclosporin A] | 1 to 1000 nM |  | 
CCC1NC(=O)C(C2OC(Oc3ccc(C4CCCCC4)cc3)CC2C)N(C)C(=O)C(C(C)C)N(C)C(=O)C(CC(C)C)N(C)C(=O)C(CC(C)C)N(C)C(=O)C(C)NC(=O)C(C)NC(=O)C(CC(C)C)N(C)C(=O)C(C(C)C)NC(=O)C(CC(C)C)N(C)C(=O)CN(C)C1=O (stereo not shown) [Compound 9A-o] |  | 1000 to 100000 nM | 
CCCOc1cc(SC2CC(C)C(C3C(=O)NC(CC)C(=O)N(C)CC(=O)N(C)C(CC(C)C)C(=O)NC(C(C)C)C(=O)N(C)C(CC(C)C)C(=O)NC(C)C(=O)NC(C)C(=O)N(C)C(CC(C)C)C(=O)N(C)C(CC(C)C)C(=O)N(C)C(C(C)C)C(=O)N3C)O2)ccc1Cl [Compound 42A, [2-((2R,3R)-5-(4-chloro-3-propoxyphenylthio)-3-methyltetrahydrofuran-2-yl)-2-(methylamino)acetic acid]^1-cyclosporin A] | 1 to 1000 nM |  | 
CCC1NC(=O)C(C2OC(Oc3ccc(OC)c(OC)c3)CC2C)N(C)C(=O)C(C(C)C)N(C)C(=O)C(CC(C)C)N(C)C(=O)C(CC(C)C)N(C)C(=O)C(C)NC(=O)C(C)NC(=O)C(CC(C)C)N(C)C(=O)C(C(C)C)NC(=O)C(CC(C)C)N(C)C(=O)CN(C)C1=O (stereo not shown) [Compound 37A-o] |  | 1000 to 100000 nM | 
CC[C@@H]1NC(=O)[C@H]([C@@H]2OC(Sc3cccc(OCc4ccc(F)cc4Cl)c3)C[C@H]2C)N(C)C(=O)[C@H](C(C)C)N(C)C(=O)[C@H](CC(C)C)N(C)C(=O)[C@H](CC(C)C)N(C)C(=O)[C@@H](C)NC(=O)[C@H](C)NC(=O)[C@H](CC(C)C)N(C)C(=O)[C@H](C(C)C)NC(=O)[C@H](CC(C)C)N(C)C(=O)CN(C)C1=O (stereo partly drawn) [Compound 23A, [2-((2R,3R)-5-(3-(2-chloro-4-fluorobenzyloxy)phenylthio)-3-methyltetrahydrofuran-2-yl)-2-(methylamino)acetic acid]^1-cyclosporin A] |  |  | IC50 (given as a range, assay not given, read-out: IC50): 1 to 1000 nM
CCC1NC(=O)C(C2OC(SCc3c(Cl)cccc3Cl)CC2C)N(C)C(=O)C(C(C)C)N(C)C(=O)C(CC(C)C)N(C)C(=O)C(CC(C)C)N(C)C(=O)C(C)NC(=O)C(C)NC(=O)C(CC(C)C)N(C)C(=O)C(C(C)C)NC(=O)C(CC(C)C)N(C)C(=O)CN(C)C1=O (stereo not shown) [Compound 90A-s] |  | 1000 to 100000 nM | 
CCC1NC(=O)C(C2OC(Sc3ccc(Cl)c(OC)c3)CC2C)N(C)C(=O)C(C(C)C)N(C)C(=O)C(CC(C)C)N(C)C(=O)C(CC(C)C)N(C)C(=O)C(C)NC(=O)C(C)NC(=O)C(CC(C)C)N(C)C(=O)C(C(C)C)NC(=O)C(CC(C)C)N(C)C(=O)CN(C)C1=O [Compound 40A, [2-((2R,3R)-5-(4-chloro-3-methoxyphenylthio)-3-methyltetrahydrofuran-2-yl)-2-(methylamino)acetic acid]^1-cyclosporin A] | 1 to 1000 nM |  | 
CCC1NC(=O)C(C2OC(Oc3cccc(OCc4ccccc4F)c3)CC2C)N(C)C(=O)C(C(C)C)N(C)C(=O)C(CC(C)C)N(C)C(=O)C(CC(C)C)N(C)C(=O)C(C)NC(=O)C(C)NC(=O)C(CC(C)C)N(C)C(=O)C(C(C)C)NC(=O)C(CC(C)C)N(C)C(=O)CN(C)C1=O (stereo not shown) [Compound 19A-o] |  | 1000 to 100000 nM | 
CCC1NC(=O)C(C2OC(Oc3cc(OC)cc(OCC4CCOCC4)c3)CC2C)N(C)C(=O)C(C(C)C)N(C)C(=O)C(CC(C)C)N(C)C(=O)C(CC(C)C)N(C)C(=O)C(C)NC(=O)C(C)NC(=O)C(CC(C)C)N(C)C(=O)C(C(C)C)NC(=O)C(CC(C)C)N(C)C(=O)CN(C)C1=O (stereo not shown) [Compound 66-o] |  |  | IC50 (given as a range, marked * (asterisk not explained)): 1000 to 100000 nM
CCC1NC(=O)C(C2OC(Oc3cccc(OCc4ccc(F)cc4)c3)CC2C)N(C)C(=O)C(C(C)C)N(C)C(=O)C(CC(C)C)N(C)C(=O)C(CC(C)C)N(C)C(=O)C(C)NC(=O)C(C)NC(=O)C(CC(C)C)N(C)C(=O)C(C(C)C)NC(=O)C(CC(C)C)N(C)C(=O)CN(C)C1=O (stereo not shown) [Compound 21A-o] |  | 1000 to 100000 nM | 
CCC1NC(=O)C(C2OC(Sc3c(OC)cccc3OC)CC2C)N(C)C(=O)C(C(C)C)N(C)C(=O)C(CC(C)C)N(C)C(=O)C(CC(C)C)N(C)C(=O)C(C)NC(=O)C(C)NC(=O)C(CC(C)C)N(C)C(=O)C(C(C)C)NC(=O)C(CC(C)C)N(C)C(=O)CN(C)C1=O [Compound 36A, [2-((2R,3R)-5-(2,6-dimethoxyphenylthio)-3-methyltetrahydrofuran-2-yl)-2-(methylamino)acetic acid]^1-cyclosporin A] |  |  | IC50 [1]: 1000 to 10000 nM
CCC1NC(=O)C(C2OC(Oc3ccc(OC)cc3)CC2C)N(C)C(=O)C(C(C)C)N(C)C(=O)C(CC(C)C)N(C)C(=O)C(CC(C)C)N(C)C(=O)C(C)NC(=O)C(C)NC(=O)C(CC(C)C)N(C)C(=O)C(C(C)C)NC(=O)C(CC(C)C)N(C)C(=O)CN(C)C1=O (stereo not shown) [Compound 26A-o] |  | 1000 to 100000 nM | 
CCC1NC(=O)C(C2OC(SCc3cccc(Cl)c3)CC2C)N(C)C(=O)C(C(C)C)N(C)C(=O)C(CC(C)C)N(C)C(=O)C(CC(C)C)N(C)C(=O)C(C)NC(=O)C(C)NC(=O)C(CC(C)C)N(C)C(=O)C(C(C)C)NC(=O)C(CC(C)C)N(C)C(=O)CN(C)C1=O (stereo not shown) [Compound 85A-s] |  |  | IC50 [1]: 1000 to 100000 nM
CCC1NC(=O)C(C2OC(OCc3ccc(Cl)cc3)CC2C)N(C)C(=O)C(C(C)C)N(C)C(=O)C(CC(C)C)N(C)C(=O)C(CC(C)C)N(C)C(=O)C(C)NC(=O)C(C)NC(=O)C(CC(C)C)N(C)C(=O)C(C(C)C)NC(=O)C(CC(C)C)N(C)C(=O)CN(C)C1=O [Compound 86A, [2-((2R,3R)-5-(4-chlorobenzyloxy)-3-methyltetrahydrofuran-2-yl)-2-(methylamino)acetic acid]^1-cyclosporin A] | 1 to 1000 nM |  | 
CCC1NC(=O)C(C2OC(Oc3cccc(OCc4cccnc4)c3)CC2C)N(C)C(=O)C(C(C)C)N(C)C(=O)C(CC(C)C)N(C)C(=O)C(CC(C)C)N(C)C(=O)C(C)NC(=O)C(C)NC(=O)C(CC(C)C)N(C)C(=O)C(C(C)C)NC(=O)C(CC(C)C)N(C)C(=O)CN(C)C1=O (stereo not shown) [53A + B(1:1.5)-o] |  | 1000 to 100000 nM | 

— patent US10961231B2, “NTCP inhibitors” (National Institute of Biological Sciences, Beijing, priority 2018, dated 2021)
